Reference: the supplement of paper PMC10307832

Experiments:
Assay in all cases: relative viability (nuclei count vs DMSO), 5 days (fraction); higher = more cells survive
[1] = tested on: NCI-H2085
Summary of the method: (§1)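 One day after seeding in 1536-well plates, lung cancer cell lines were dosed by pin tool. Dosing was either single-drug or a fixed anchor-drug dose plus five library-drug doses (not always all listed) in √10 steps. After 5 days, nuclei were stained in one fix-and-stain step and counted on 4× images, and relative viability is the nuclei count of treated wells over that of vehicle wells, given as the median of duplicate plates.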

[2] = tested on: BEN
Summary of the method: as §1

[3] = tested on: PC-14
Summary of the method: as §1

[4] = tested on: NCI-H1355
Summary of the method: as §1

[5] = tested on: NCI-H2009
Summary of the method: as §1

[6] = tested on: LCLC-97TM1
Summary of the method: as §1

[7] = tested on: NCI-H322M
Summary of the method: as §1

[8] = tested on: NCI-H460
Summary of the method: as §1

[9] = tested on: HCC-78
Summary of the method: as §1

[10] = tested on: 201T
Summary of the method: as §1

[11] = tested on: NCI-H650
Summary of the method: as §1

[12] = tested on: NCI-H2126
Summary of the method: as §1

[13] = tested on: LU99A
Summary of the method: as §1

[14] = tested on: NCI-H647
Summary of the method: as §1

[15] = tested on: NCI-H1395
Summary of the method: as §1

[16] = tested on: NCI-H2405
Summary of the method: as §1

[17] = tested on: NCI-H23
Summary of the method: as §1

[18] = tested on: NCI-H2342
Summary of the method: as §1

[19] = tested on: HCC-15
Summary of the method: as §1

[20] = tested on: EPLC-272H
Summary of the method: as §1

[21] = tested on: NCI-H661
Summary of the method: as §1

[22] = tested on: NCI-H838
Summary of the method: as §1

Cc1cn(-c2cc(NC(=O)c3ccc(C)c(Nc4nccc(-c5cccnc5)n4)c3)cc(C(F)(F)F)c2)cn1 [Nilotinib] + Nc1ncn([C@H]2C[C@H](O)[C@@H](CO)O2)c(=O)n1 [Decitabine] (partner 2 µM)
relative viability ([1]; first compound 0.001 µM): 0.591 | relative viability ([1]; first compound 0.003162 µM): 0.619 | relative viability ([1]; first compound 0.01 µM): 0.675 | relative viability ([1]; first compound 0.03162 µM): 0.794 | relative viability ([1]; first compound 0.1 µM): 0.76 | relative viability ([2]; first compound 0.001 µM): 0.787 | relative viability ([2]; first compound 0.003162 µM): 0.727 | relative viability ([2]; first compound 0.01 µM): 0.622 | relative viability ([2]; first compound 0.03162 µM): 0.801 | relative viability ([2]; first compound 0.1 µM): 0.516 | relative viability ([3]; first compound 0.001 µM): 0.24 | relative viability ([3]; first compound 0.003162 µM): 0.263 | relative viability ([3]; first compound 0.01 µM): 0.27 | relative viability ([3]; first compound 0.03162 µM): 0.304 | relative viability ([3]; first compound 0.1 µM): 0.266 | relative viability ([4]; first compound 0.001 µM): 0.355 | relative viability ([4]; first compound 0.003162 µM): 0.381 | relative viability ([4]; first compound 0.01 µM): 0.382 | relative viability ([4]; first compound 0.03162 µM): 0.408 | relative viability ([4]; first compound 0.1 µM): 0.418 | relative viability ([5]; first compound 0.001 µM): 0.372 | relative viability ([5]; first compound 0.003162 µM): 0.393 | relative viability ([5]; first compound 0.01 µM): 0.412 | relative viability ([5]; first compound 0.03162 µM): 0.406 | relative viability ([5]; first compound 0.1 µM): 0.421 | relative viability ([6]; first compound 0.001 µM): 0.201 | relative viability ([6]; first compound 0.003162 µM): 0.283 | relative viability ([6]; first compound 0.01 µM): 0.279 | relative viability ([6]; first compound 0.03162 µM): 0.321 | relative viability ([7]; first compound 0.001 µM): 0.724 | relative viability ([7]; first compound 0.003162 µM): 0.786 | relative viability ([7]; first compound 0.01 µM): 0.673 | relative viability ([7]; first compound 0.03162 µM): 0.654 | relative viability ([7]; first compound 0.1 µM): 0.898 | relative viability ([8]; first compound 0.001 µM): 0.443 | relative viability ([8]; first compound 0.003162 µM): 0.648 | relative viability ([8]; first compound 0.01 µM): 0.56 | relative viability ([8]; first compound 0.03162 µM): 0.325 | relative viability ([8]; first compound 0.1 µM): 0.306 | relative viability ([9]; first compound 0.001 µM): 0.702 | relative viability ([9]; first compound 0.003162 µM): 0.576 | relative viability ([9]; first compound 0.01 µM): 0.666 | relative viability ([9]; first compound 0.03162 µM): 0.669 | relative viability ([9]; first compound 0.1 µM): 0.658 | relative viability ([10]; first compound 0.001 µM): 0.851 | relative viability ([10]; first compound 0.003162 µM): 0.973 | relative viability ([10]; first compound 0.01 µM): 0.944 | relative viability ([10]; first compound 0.03162 µM): 1.01 | relative viability ([10]; first compound 0.1 µM): 0.814 | relative viability ([11]; first compound 0.001 µM): 0.295 | relative viability ([11]; first compound 0.003162 µM): 0.379 | relative viability ([11]; first compound 0.01 µM): 0.387 | relative viability ([11]; first compound 0.03162 µM): 0.315 | relative viability ([11]; first compound 0.1 µM): 0.306 | relative viability ([12]; first compound 0.001 µM): 0.541 | relative viability ([12]; first compound 0.003162 µM): 0.675 | relative viability ([12]; first compound 0.01 µM): 0.564 | relative viability ([12]; first compound 0.03162 µM): 0.614 | relative viability ([12]; first compound 0.1 µM): 0.568 | relative viability ([13]; first compound 0.001 µM): 0.909 | relative viability ([13]; first compound 0.003162 µM): 1.11 | relative viability ([13]; first compound 0.01 µM): 0.905 | relative viability ([13]; first compound 0.03162 µM): 0.999 | relative viability ([13]; first compound 0.1 µM): 0.436 | relative viability ([14]; first compound 0.001 µM): 0.396 | relative viability ([14]; first compound 0.003162 µM): 0.446 | relative viability ([14]; first compound 0.01 µM): 0.573 | relative viability ([14]; first compound 0.03162 µM): 0.448 | relative viability ([14]; first compound 0.1 µM): 0.528 | relative viability ([15]; first compound 0.001 µM): 0.745 | relative viability ([15]; first compound 0.01 µM): 0.798 | relative viability ([15]; first compound 0.03162 µM): 0.707 | relative viability ([15]; first compound 0.1 µM): 0.891 | relative viability ([16]; first compound 0.001 µM): 0.724 | relative viability ([16]; first compound 0.003162 µM): 0.815 | relative viability ([16]; first compound 0.01 µM): 0.798 | relative viability ([16]; first compound 0.03162 µM): 0.65 | relative viability ([16]; first compound 0.1 µM): 0.509 | relative viability ([17]; first compound 0.001 µM): 0.355 | relative viability ([17]; first compound 0.003162 µM): 0.352 | relative viability ([17]; first compound 0.01 µM): 0.344 | relative viability ([17]; first compound 0.03162 µM): 0.351 | relative viability ([17]; first compound 0.1 µM): 0.273 | relative viability ([18]; first compound 0.001 µM): 0.704 | relative viability ([18]; first compound 0.003162 µM): 0.735 | relative viability ([18]; first compound 0.01 µM): 0.666 | relative viability ([18]; first compound 0.03162 µM): 0.591 | relative viability ([18]; first compound 0.1 µM): 0.754 | relative viability ([19]; first compound 0.001 µM): 0.569 | relative viability ([19]; first compound 0.003162 µM): 0.77 | relative viability ([19]; first compound 0.01 µM): 0.718 | relative viability ([19]; first compound 0.03162 µM): 0.481 | relative viability ([19]; first compound 0.1 µM): 0.309 | relative viability ([20]; first compound 0.001 µM): 0.294 | relative viability ([20]; first compound 0.003162 µM): 0.368 | relative viability ([20]; first compound 0.01 µM): 0.436 | relative viability ([20]; first compound 0.03162 µM): 0.341 | relative viability ([20]; first compound 0.1 µM): 0.338 | relative viability ([21]; first compound 0.001 µM): 0.554 | relative viability ([21]; first compound 0.003162 µM): 0.56 | relative viability ([21]; first compound 0.01 µM): 0.644 | relative viability ([21]; first compound 0.03162 µM): 0.469 | relative viability ([21]; first compound 0.1 µM): 0.546 | relative viability ([22]; first compound 0.001 µM): 0.44 | relative viability ([22]; first compound 0.003162 µM): 0.532 | relative viability ([22]; first compound 0.01 µM): 0.522 | relative viability ([22]; first compound 0.03162 µM): 0.489 | relative viability ([22]; first compound 0.1 µM): 0.637
